Assay results from patent publication US20250034216A1, “STEREOSELECTIVE COVALENT LIGANDS FOR ONCOGENIC AND IMMUNOLOGICAL PROTEINS” (The Scripps Research Institute, priority 2021, published 2025).

What was measured:
Assay in all cases: IA-DTB cysteine engagement
Format in all cases: binding
REEP5_C18 = molecular target: T1, REEP5_C18 (Homo sapiens, UniProt Q00765); conditions: 22Rv1 cells, relative to DMSO; for % engagement REEP5_18: 5 μM probe, 1 h (FIG. 5B); for % engagement REEP5_C18: 20 μM probe, 1 h
T1 construct: endogenous in cells; host or cells: 22Rv1
Summary of the method: (§1)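 Read-out is TMT-based cysteine engagement, expressed as each reporter ion intensity divided by the average of the DMSO channels. Before that, probe-treated cell lysates were capped with IA-DTB, digested, enriched on streptavidin and TMT-tagged. PSMs with DMSO summed intensity <10,000 or DMSO CV >0.5 were excluded.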

ALG3_C21 = molecular target: T2, ALG3_C21 (Homo sapiens, UniProt Q92685); conditions: 22Rv1 cells, 20 μM probe, 1 h, relative to DMSO
T2 construct: endogenous in cells; host or cells: 22Rv1
T2 sequence (Q92685 1-438): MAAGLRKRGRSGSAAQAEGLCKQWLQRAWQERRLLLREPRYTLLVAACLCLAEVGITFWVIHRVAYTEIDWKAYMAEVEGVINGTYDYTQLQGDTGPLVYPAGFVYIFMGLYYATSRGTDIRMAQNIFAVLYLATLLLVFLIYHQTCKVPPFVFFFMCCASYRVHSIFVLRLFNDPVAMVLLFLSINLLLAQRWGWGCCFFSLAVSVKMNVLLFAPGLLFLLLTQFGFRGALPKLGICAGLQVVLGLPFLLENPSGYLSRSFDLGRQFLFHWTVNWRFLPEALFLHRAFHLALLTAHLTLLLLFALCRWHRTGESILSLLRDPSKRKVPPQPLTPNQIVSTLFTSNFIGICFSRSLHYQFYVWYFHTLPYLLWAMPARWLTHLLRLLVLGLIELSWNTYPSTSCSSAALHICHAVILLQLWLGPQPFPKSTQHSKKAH
Summary of the method: as §1

MAGI1_C526 = molecular target: T3, MAGI1_C526 (Homo sapiens, UniProt Q96QZ7); conditions: 22Rv1 cells, 20 μM probe, 1 h, relative to DMSO
T3 construct: endogenous in cells; host or cells: 22Rv1
Summary of the method: as §1

OCIAD1_C98 = molecular target: T4, OCIAD1_C98 (Homo sapiens, UniProt Q9NX40); conditions: 22Rv1 cells, 20 μM probe, 1 h, relative to DMSO
T4 construct: endogenous in cells; host or cells: 22Rv1
T4 sequence (Q9NX40 1-245): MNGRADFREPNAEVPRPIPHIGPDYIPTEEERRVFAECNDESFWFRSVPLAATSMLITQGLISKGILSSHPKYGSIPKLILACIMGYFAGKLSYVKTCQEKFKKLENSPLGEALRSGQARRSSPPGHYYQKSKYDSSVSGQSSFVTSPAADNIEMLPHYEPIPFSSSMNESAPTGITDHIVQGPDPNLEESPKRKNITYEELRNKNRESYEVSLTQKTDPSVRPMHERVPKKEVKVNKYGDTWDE
Summary of the method: as §1

SLC25A20_C89 = molecular target: T5, SLC25A20_C89 (Homo sapiens, UniProt O43772); conditions: 22Rv1 cells, 20 μM probe, 1 h, relative to DMSO
T5 construct: endogenous in cells; host or cells: 22Rv1
T5 sequence (O43772 1-301): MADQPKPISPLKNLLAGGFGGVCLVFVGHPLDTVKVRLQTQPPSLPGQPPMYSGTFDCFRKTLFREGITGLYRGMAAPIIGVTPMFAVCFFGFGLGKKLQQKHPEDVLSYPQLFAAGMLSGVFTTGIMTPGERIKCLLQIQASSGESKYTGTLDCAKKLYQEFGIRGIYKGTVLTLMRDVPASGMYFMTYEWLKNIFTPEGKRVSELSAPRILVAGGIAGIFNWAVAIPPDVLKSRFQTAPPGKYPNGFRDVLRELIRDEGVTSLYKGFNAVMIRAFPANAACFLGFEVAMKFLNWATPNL
Summary of the method: as §1

T1 sequence (Q00765 whole entry): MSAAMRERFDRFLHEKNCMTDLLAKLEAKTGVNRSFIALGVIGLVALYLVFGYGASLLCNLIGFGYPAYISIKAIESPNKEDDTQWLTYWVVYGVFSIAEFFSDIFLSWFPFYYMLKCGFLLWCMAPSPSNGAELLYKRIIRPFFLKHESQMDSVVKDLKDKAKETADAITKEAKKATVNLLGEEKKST
T3 sequence (Q96QZ7 whole entry): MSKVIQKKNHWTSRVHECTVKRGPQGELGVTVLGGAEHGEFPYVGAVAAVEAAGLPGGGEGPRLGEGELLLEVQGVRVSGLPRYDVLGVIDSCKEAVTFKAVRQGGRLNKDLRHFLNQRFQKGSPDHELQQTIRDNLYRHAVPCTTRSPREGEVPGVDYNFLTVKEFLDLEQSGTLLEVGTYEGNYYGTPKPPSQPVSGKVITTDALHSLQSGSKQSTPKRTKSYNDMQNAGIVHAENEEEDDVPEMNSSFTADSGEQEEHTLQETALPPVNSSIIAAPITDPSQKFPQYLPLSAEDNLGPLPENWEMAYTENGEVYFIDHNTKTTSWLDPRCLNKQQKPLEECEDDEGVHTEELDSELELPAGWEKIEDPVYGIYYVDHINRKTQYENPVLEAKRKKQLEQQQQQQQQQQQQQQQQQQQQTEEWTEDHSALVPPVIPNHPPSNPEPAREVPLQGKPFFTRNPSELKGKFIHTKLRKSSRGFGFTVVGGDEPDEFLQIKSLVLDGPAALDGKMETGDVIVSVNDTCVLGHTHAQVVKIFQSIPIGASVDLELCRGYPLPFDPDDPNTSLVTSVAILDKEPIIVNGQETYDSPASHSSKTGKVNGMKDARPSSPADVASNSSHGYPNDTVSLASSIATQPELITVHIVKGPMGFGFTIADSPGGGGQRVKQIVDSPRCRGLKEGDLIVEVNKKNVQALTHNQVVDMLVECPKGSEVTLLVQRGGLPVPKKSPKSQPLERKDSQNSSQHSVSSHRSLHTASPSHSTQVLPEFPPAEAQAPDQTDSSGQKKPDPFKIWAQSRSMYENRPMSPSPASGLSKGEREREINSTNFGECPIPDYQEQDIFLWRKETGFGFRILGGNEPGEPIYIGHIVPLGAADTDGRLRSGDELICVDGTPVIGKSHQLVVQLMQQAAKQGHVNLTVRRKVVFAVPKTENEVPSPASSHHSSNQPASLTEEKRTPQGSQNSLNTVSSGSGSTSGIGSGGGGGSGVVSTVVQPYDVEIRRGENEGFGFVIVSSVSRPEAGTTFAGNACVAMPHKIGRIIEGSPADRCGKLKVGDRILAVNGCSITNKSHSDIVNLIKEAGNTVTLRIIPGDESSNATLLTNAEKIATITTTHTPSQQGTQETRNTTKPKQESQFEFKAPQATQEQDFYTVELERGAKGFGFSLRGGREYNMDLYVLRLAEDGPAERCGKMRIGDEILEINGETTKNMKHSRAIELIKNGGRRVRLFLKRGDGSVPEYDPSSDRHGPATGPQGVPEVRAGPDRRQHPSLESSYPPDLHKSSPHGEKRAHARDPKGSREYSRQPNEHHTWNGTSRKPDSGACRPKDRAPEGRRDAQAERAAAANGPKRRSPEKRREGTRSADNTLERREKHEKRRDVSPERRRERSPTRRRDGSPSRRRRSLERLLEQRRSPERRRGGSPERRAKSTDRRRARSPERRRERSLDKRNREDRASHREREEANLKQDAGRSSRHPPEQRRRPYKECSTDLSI

CC#CC(=O)N1C[C@H](c2ccc(Br)cc2)[C@@H]1C(=O)Nc1cccc2cccnc12 [MY-45B, (2R,3S)-3-(4-bromophenyl)-1-(but-2-ynoyl)-N-(quinolin-8-yl)azetidine-2-carboxamide]
% engagement REEP5_18 (REEP5_C18): 22.75%

C=CC(=O)N1C[C@H](c2ccc(Br)cc2)[C@H]1C(=O)Nc1cccc2cccnc12 [MY-3A, (2S,3S)-1-acryloyl-3-(4-bromophenyl)-N-(quinolin-8-yl)azetidine-2-carboxamide]
% engagement ALG3_C21 (ALG3_C21): 74.5%
% engagement MAGI1_C526 (MAGI1_C526): 2.5%
% engagement OCIAD1_C98 (OCIAD1_C98): 12.5%
% engagement REEP5_C18 (REEP5_C18): 88.25%
% engagement SLC25A20_C89 (SLC25A20_C89): 45%

C=CC(=O)N1C[C@@H](c2ccc(Br)cc2)[C@H]1C(=O)Nc1cccc2cccnc12 [MY-1A, (2S,3R)-1-acryloyl-3-(4-bromophenyl)-N-(quinolin-8-yl)azetidine-2-carboxamide]
% engagement ALG3_C21 (ALG3_C21): 90.25%
% engagement MAGI1_C526 (MAGI1_C526): 65%
% engagement OCIAD1_C98 (OCIAD1_C98): 26%
% engagement REEP5_C18 (REEP5_C18): 91.75%
% engagement SLC25A20_C89 (SLC25A20_C89): 9.5%

C=CC(=O)N1C[C@H](c2ccc(Br)cc2)[C@@H]1C(=O)Nc1cccc2cccnc12 [MY-1B, (2R,3S)-1-acryloyl-3-(4-bromophenyl)-N-(quinolin-8-yl)azetidine-2-carboxamide]
% engagement ALG3_C21 (ALG3_C21): 68%
% engagement MAGI1_C526 (MAGI1_C526): 32%
% engagement OCIAD1_C98 (OCIAD1_C98): 19%
% engagement REEP5_18 (REEP5_C18): 79.00%
% engagement REEP5_C18 (REEP5_C18): 97.5%
% engagement SLC25A20_C89 (SLC25A20_C89): 94%

C=CC(=O)N1C[C@H](c2ccc(Br)cc2)[C@H]1C(=O)Nc1cccc2cccnc12 [MY-3B, (2S,3S)-1-acryloyl-3-(4-bromophenyl)-N-(quinolin-8-yl)azetidine-2-carboxamide]
% engagement ALG3_C21 (ALG3_C21): 84.75%
% engagement MAGI1_C526 (MAGI1_C526): 100%
% engagement OCIAD1_C98 (OCIAD1_C98): 72.5%
% engagement REEP5_C18 (REEP5_C18): 91.75%
% engagement SLC25A20_C89 (SLC25A20_C89): 91%
